Assay results as given in ChEMBL document CHEMBL1157539, “Thousands of chemical starting points for antimalarial lead identification” (Nature, 2010).
Values joined by “and” are separate entries in the source; they are usually repeats but may differ in a detail not shown here. Identical values can stand only once.

test system: Plasmodium falciparum; experiment: GSK_TCMDC: Inhibition of Plasmodium falciparum 3D7 in whole erythrocytes, using parasite LDH activity as an index of growth.; assay type: functional, organism-based; conditions: not given

Compound	XC50
O=C(Nc1ccccc1OC(F)(F)F)NC1CCC(CN2CCC(c3c[nH]c4ccccc34)CC2)CC1 (centres undefined)	369 nM and 800 nM
O=C(NCCCCN1CCCC2c3ccc(O)cc3CCC21)c1ccc(-c2ccccc2)cc1 (centres undefined)	945 nM

same assay, conditions: Plasmodium falciparum, 3D7

Compound	XC50 [nM]
CCOC(=O)c1sc(C(C)Nc2ccccc2)nc1-c1ccccc1 (centres undefined)	333
O=C(/C=C/c1ccccc1Cl)Nc1ccc(Br)c(OCCN2CCCCC2)c1	168
CCCCCCN(C(=O)OCc1ccccc1)C1CCN(C(=O)OC(C)(C)C)CC1C(=O)OCC (centres undefined)	366
OCCn1c(CNCCCNc2nc3ccccc3[nH]2)cc2c(Cl)cc(Cl)cc21	806
COc1cc(Cc2cnc(N)nc2N)cc(OC)c1OCCCCCN1C(=O)c2ccccc2C1=O	618
COc1cc2c(cc1OC)CN(c1cc(N)c3cc(OC)c(OC)cc3n1)CC2	552
COc1ccc2ncc(C#N)c(CCN3CCC(NCc4ccc5c(n4)NC(=O)CS5)CC3)c2n1	836
Cn1c(=O)n(C)c2cc(CNCCNc3ccnc4cc(Cl)ccc34)ccc21	140
Cc1ccc(Cn2cnc(N3CC(C)NC(C)C3)cc2=O)cc1NC(=O)Nc1ccc(-c2ccccc2)cc1 (centres undefined)	851
COc1cc(C(=O)N2CCOC(CCN3CCC4c5ccccc5CC43)(c3ccc(Cl)c(Cl)c3)C2)cc(OC)c1OC (centres undefined)	529
Cc1ccc(C2CC(c3cccs3)=NN2C(=O)c2ccc(Br)o2)cc1 (centres undefined)	887
CN1CCN(c2ccc(Nc3ncc(C#N)c(Nc4ccccc4C(N)=O)n3)cc2)CC1	39.4
Fc1cccc(COc2ccc(Nc3ncnc4sc(C#C[C@H]5CC[C@H](CN6CCOCC6)N5)cc34)cc2Cl)c1	920
N#Cc1ccc(CN2CCC(Oc3ccc(NC(=O)c4cccs4)cc3)C2)cc1 (centres undefined)	953
[O-][s+]1c(Cl)c(-c2ccc(Cl)cc2)c2ccc(Cl)cc21 (centres undefined)	993
CCC(C)NC(=O)Cn1c2ncccc2c(=O)n1-c1ccc(C)cc1 (centres undefined)	1260
CC(CNCc1cn(Cc2cc(Br)cc(Br)c2)c2ccccc12)CNc1cc(=O)c2ccccc2[nH]1 (centres undefined)	464
Cc1ccc(C(=O)Nc2ccc(Nc3ccnc4cc(-c5ccncc5)ccc34)cc2O)cc1	929
CCCCCC(C)C(C)c1cc(O)c2c(c1)OC(C)(C)CC2c1cc[n+]([O-])cc1 (centres undefined)	499
Cc1[nH]cnc1CSCCNC(=N)NCCCCCCCCNC(=N)NCCSCc1nc[nH]c1C	268
COc1ccc(CNCCCCCNCc2ccc(Cl)c(Cl)c2)cc1Cl	751
CCNc1cc(C(=O)N[C@@H](Cc2ccc(F)c(F)c2)[C@H](O)CNCc2cccc(OC)c2)cc(N2CCCCS2(=O)=O)c1	749
Cc1nccc2c(NC(=O)N[C@@H]3CCN(c4ncc(C(F)(F)F)cc4Br)C3)cccc12	364
CCOC(=O)c1ccc(NC(=O)N[C@@H](Cc2ccccc2)C(=O)NC2CCN(Cc3ccc(O)c(OC)c3)C2)cc1 (some centres undefined)	989
Nc1ccnc2ccc(OCCCCCCc3ccccc3)cc12	524

Compound	XC50 [nM]
Nc1ccc(-c2ccc(NC(=O)Nc3cc(C(F)(F)F)ccc3F)cc2)cn1	657
CCC(COCc1ccc(Cl)cc1)N(C)CCN(C)C(CC)COCc1ccc(Cl)cc1 (centres undefined)	1060
CCCCCCOc1ccccc1C(=O)NCCOc1ccc(Cl)cc1	1210
CCOC(=O)c1ccc(N2CCN(c3cc(Cl)ccc3C)CC2)c(NC(=O)Nc2ccc(Cl)c(Cl)c2)c1	584
Cc1cc(N2CCC(NS(=O)(=O)c3ccc(F)cc3)CC2)nc(Nc2cccc(C#N)c2)n1	651
Nc1ncc(-c2ccsc2)c2ccc(-c3cc(NCc4ccccc4)ncn3)cc12	861
COc1ccccc1-c1nc2c(ccc3nc(N)nc(N)c32)[nH]1	176
COc1cc(C(=O)NC2CC(C)(C)N(C)C(C)(C)C2)ccc1-c1nc2cc(Cl)c(Cl)cc2[nH]1	788
COc1ccc(N2CCN(CCCCNC(=O)c3ccc(/C=C/c4ccc(Cl)c(Cl)c4)cc3)CC2)c(OC)c1	709
CC(=O)Oc1ccc(C(=O)Oc2ccccc2C#CC#N)cc1OC(C)=O	320
Cc1cc(N/N=C/c2cccc([N+](=O)[O-])c2)c2ccccc2n1	728
CCN(Cc1ccc(-c2ccc(C(F)(F)F)cc2)cc1)C(=O)Cn1c(SCc2cccc(F)c2F)cc(=O)c2cc(CN3CCCCC3)ccc21	801
CN(CCCCCNC(=O)/C=C/c1ccc(Cl)c(Cl)c1)CCCCc1c[nH]c2ccccc12	1080
COc1ccc(OC)c(C(O)CNC(C)C)c1 (centres undefined)	56
CC(C)CNC(=O)c1cncc(-c2ccc(CN(C)C3CCN(C)CC3)cc2)c1	878
Cc1nc(Nc2ccc(C)c(Cl)c2)c2c(C)noc2n1	886
Clc1ccc(-c2cc(-c3csc(NCCN4CCOCC4)n3)on2)c(Cl)c1	660
CN(C(=O)Cc1ccc(Cl)c(Cl)c1)C1CCN(CCCCCNC(=O)/C=C/c2ccc(Cl)c(Cl)c2)CC1	739
CCCCCCNC(=O)C1Cc2c([nH]c3ccc(Br)cc23)C2(CCN(Cc3ccccc3)CC2)N1 (centres undefined)	722
CCCCCc1cc(O)c2c(c1)OC(C)(C)c1ccncc1-2	763
CN1CCN(c2ccnc3ccc(NC(=O)c4ccc(Cl)c(Cl)c4)cc23)CC1	710
CCCCCCN1CCC(NCc2cccc(C(F)(F)F)c2)CC1	246
O=C(CCN1C(=O)c2ccccc2C1=O)N1CCN(CC=Cc2ccccc2)CC1	541
Nc1ncnc2c1ncn2C(CO)Cc1ccc(O)cc1 (centres undefined)	1030
O=S(=O)(NCCN1CCCC1)c1ccc(-c2ccc(CNCc3ccccc3)cc2)s1	849

Compound	XC50 [nM]
COc1ccc2sc(CNCCCNc3cc(=O)c4ccccc4[nH]3)c(Cl)c2c1	1070
COc1ccc(S(=O)(=O)Nc2cc(C)cc(Br)c2OC)cc1N1CCN(C(=O)C(Cl)(Cl)Cl)CC1	871
O=C(NCCCCN1CCC(c2ccc3c(c2OCc2ccncc2)CCCC3)CC1)c1ccc(NC(=O)c2ccc(Cl)cc2)cc1	218
OCC1CCN(Cc2cccc(C#Cc3cc4ncnc(Nc5ccc(OCc6cccc(F)c6)c(Cl)c5)c4s3)n2)CC1	552
CCNc1cc(C(=O)N[C@@H](Cc2ccccc2Cl)[C@H](O)CNC2CCCCC2)cc(N2CCCCS2(=O)=O)c1	803
O=C(NCCCCN1CCC(c2ccc3c(c2OCCOCCO)CCCC3)CC1)c1ccc(-c2ccc(C(F)(F)F)cc2)cc1	275
CCC(CC)N1C(=O)C(c2ccccc2)(c2ccccc2)N=C1N	805
COc1ccc2nccc([C@@H](O)CN3CCC(NC(=O)/C(=C/c4ccccc4)c4ccc(-c5ccccc5)cc4)CC3)c2c1	1050
Cn1cnc(CCNC(=O)c2ccc(-c3ccc(-c4nc5cc(C(F)(F)F)ccc5[nH]4)s3)cc2)c1	402
COc1ccc(Br)cc1C1Nc2ccc3ccccc3c2C2=C1C(=O)CC(c1ccccc1)C2 (centres undefined)	590
CC(C)COc1ccc(Cl)cc1Cc1ccc(-c2nc3cnc4ccccc4c3[nH]2)o1	1260
O=C1CCCN1CCCNCc1cccc(-c2cccc(-c3nc4cc(F)ccc4[nH]3)c2)c1	598
CCC(C)OC(=O)C1=C(C)NC2=C(C(=O)CC(c3ccc(OC)c(OC)c3)C2)C1c1cccc(O)c1 (centres undefined)	193
O=C1OC(c2ccccc2)(c2ccccc2)CN1CC1CCN(Cc2ccc(O)c(Cl)c2)CC1	818
COc1cc(Cc2cnc(N)nc2N)ccc1OCc1ccc(-c2csnn2)cc1	628
CCCCCN1C(=O)C(c2ccccc2)(c2ccccc2)N=C1N	793
Cc1cc(=NN=Cc2cccc(Cl)c2)c2cc(F)ccc2[nH]1	759
c1cc(CNCCN2CCNCC2)cc(-c2ccc(-c3nc4ccccc4[nH]3)cc2)c1	1080
O=C1OC2(CN1CC1CCN(Cc3ccc(-n4ccnc4)cc3)C1)c1ccccc1-c1ccccc12 (centres undefined)	983
NC1CCCN(Cc2ccc(-c3cccc(-c4nc5cc(F)ccc5[nH]4)c3)cc2)C1 (centres undefined)	640
O=C(N[C@@H](CC1CCCCC1)C(=O)NC1CCCCCC1)c1ccc(O)c(-c2ccc(Cl)c(Cl)c2)c1	102
CC(=O)Nc1ccc(NC(=O)c2cc(-c3ccc(C)cc3O)n[nH]2)cc1	490
Cc1ccccc1C1CCN(C2CCC(NC(=O)/C=C/c3ccc(F)cc3)CC2)CC1 (centres undefined)	1340
Clc1cc(Cl)c2cc(CN[C@H]3CCC[C@@H]3CNc3nc4ccccc4[nH]3)[nH]c2c1	275
CC(=O)NC(c1cccs1)c1cc(Cl)c2cccnc2c1O (centres undefined)	317

Compound	XC50 [nM]
CCN(CC)CCCSc1ccc(-c2ccc(SCCCN(CC)CC)cc2)cc1	1160
CCOc1ccc(S(=O)(=O)N(C)c2ccc(OCC(=O)Nc3nccs3)cc2)cc1	961
COc1ccc(/C=C/C(=O)Nc2ccc(-c3ccncc3)cc2)cc1CCCN(C)C	753
Cc1ccc(C(=O)Cn2nc(-c3ccc(C)c(S(=O)(=O)N4CCCCC4)c3)ccc2=O)cc1	333
CCCc1cn2c3c(cc(C(=O)N[C@@H](Cc4ccccc4)[C@H](O)CNC4CCCCC4)cc13)N(CC)S(=O)(=O)CC2	80.6
CC1(C)S(=O)(=O)CC(O)CS1(=O)=O	467
Cc1[nH]c(C)c(-c2ccc(-c3ccccc3F)nc2)c(=O)c1Cl	250
O=C(Cc1ccccc1)NC(c1ccc(Cl)cc1)c1ccc2cccnc2c1O (centres undefined)	861
Cc1cc(-c2cccc(CNCc3ccc(F)cc3)c2)ccc1S(=O)(=O)NCCN1CCCC1	732
CCOC(=O)c1c(NC(NC(=O)c2ccc(C(C)(C)C)cc2)C(Cl)(Cl)Cl)sc2c1CCCC2 (centres undefined)	809
Cc1nn(-c2ccccc2)c2sc(C(=O)N(CCCN(C)C)c3nc(-c4ccccc4)cs3)cc12	981
CN1CCC(C(=O)Nc2cccc(-c3ccc(-c4nc5cc(C(F)(F)F)ccc5[nH]4)s3)c2)CC1	724
CCCCNCc1cc(Cl)c2ccccc2c1O	457
O=C(NCCCCN1CCCC2c3ccc(O)cc3CCC21)c1ccc(-c2ccccc2)cc1 (centres undefined)	732
COc1ccc(CNCc2ccc(-c3ccc(-c4nc5cc(F)ccc5[nH]4)cc3)cc2)cc1	249
COc1nc(N)ncc1C(=O)NC1CN2CCC1CC2 (centres undefined)	235
Cc1cccc2nc(-c3cccc(-c4cccc(NC(=O)CN5CCN(C)CC5)c4)c3)[nH]c12	533
COc1ccc2nccc([C@@H](O)CN3CCC(NC(=O)/C=C/c4c[nH]c5c(C)cccc45)CC3)c2c1	135
Cc1cccc2nc(-c3cccc(-c4ccc(NC(=O)c5cccnc5)cc4)c3)[nH]c12	594
O=C(Nc1ccc2c(c1)CCC2)c1ccc(N2CCN(c3ccncc3)CC2)cn1	862
COC(=O)Cn1c(C2CCN(CC3CCC(NC(=O)/C=C/c4ccc(Cl)c(Cl)c4)CC3)CC2)nc2ccccc21 (centres undefined)	1140
COc1ccc(C(=O)Nc2ccc(Nc3nc(C)cc(N(C)C)n3)cc2)c(OC)c1	868
